Measurements reported in ChEMBL document CHEMBL1157152, “Kinetic parameters and recognition of thymidine analogues with varying functional groups by thymidine phosphorylase” (Bioorg Med Chem, 2008).

Assays:
[1] = target: Thymidine phosphorylase (Escherichia coli K-12) (UniProt P07650); assay: Activity of Escherichia coli thymidine phosphorylase assessed as drug phosphorylation after 24 hrs
[2] = target: Thymidine phosphorylase (Escherichia coli K-12) (UniProt P07650); assay: Activity of Escherichia coli thymidine phosphorylase assessed as drug phosphorylation after 2 hrs; parameters: concentration or dose not given beside the values
[3] = target: Thymidine phosphorylase (Escherichia coli K-12) (UniProt P07650); assay: Activity of Escherichia coli thymidine phosphorylase assessed as drug phosphorylation after 1 hr; parameters: concentration or dose not given beside the values
[4] = target: Thymidine phosphorylase (Escherichia coli K-12) (UniProt P07650); assay: Activity of 10 U/mL Escherichia coli thymidine phosphorylase assessed as drug phosphorylation after 24 hrs
[5] = target: Thymidine phosphorylase (Escherichia coli K-12) (UniProt P07650); assay: Activity of 10 U/mL Escherichia coli thymidine phosphorylase assessed as drug phosphorylation after 1 week
[6] = target: Thymidine phosphorylase (Escherichia coli K-12) (UniProt P07650); assay: Activity of 1 U/mL Escherichia coli thymidine phosphorylase assessed as drug phosphorylation after 1 hr

Sequence of Thymidine phosphorylase (Escherichia coli K-12) (P07650 whole entry, looked up): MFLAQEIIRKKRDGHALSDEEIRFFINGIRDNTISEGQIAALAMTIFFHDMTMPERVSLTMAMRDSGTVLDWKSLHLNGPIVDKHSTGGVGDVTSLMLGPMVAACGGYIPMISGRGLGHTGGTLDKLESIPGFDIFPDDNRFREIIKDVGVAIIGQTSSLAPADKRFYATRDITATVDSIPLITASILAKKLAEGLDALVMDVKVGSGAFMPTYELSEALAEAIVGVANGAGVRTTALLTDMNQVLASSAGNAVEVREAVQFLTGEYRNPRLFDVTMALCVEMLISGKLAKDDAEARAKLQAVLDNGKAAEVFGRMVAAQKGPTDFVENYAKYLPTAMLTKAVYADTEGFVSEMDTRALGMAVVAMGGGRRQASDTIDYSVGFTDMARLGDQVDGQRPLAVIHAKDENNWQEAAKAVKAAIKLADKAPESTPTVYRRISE

Structure (SMILES)	Activity [2]	Activity [3]	Activity [4]	also measured
O=c1ccn([C@H]2C[C@H](O)[C@@H](CO)O2)c(=O)[nH]1	88%			Activity [1]: 83%
Cc1cn([C@H]2C[C@H](O)[C@@H](CCl)O2)c(=O)[nH]c1=O	70%	24%		
Cc1cn([C@H]2CC(O)[C@@H](CO)O2)c(=O)[nH]c1=O (single isomer, unassigned)	0%	0%		
Cc1cn([C@H]2C[C@H](N)[C@@H](CO)O2)c(=O)[nH]c1=O	1.5%	0.76%		
Cc1cn([C@H]2C[C@H](O)[C@@H](CN)O2)c(=O)[nH]c1=O	36%	11%		
Cc1cn([C@H]2C[C@H](O)[C@@H](C)O2)c(=O)[nH]c1=O	91%	68%		
Cc1cn([C@H]2C[C@H](O)[C@@H](CO)S2)c(=O)[nH]c1=O			3.8%	
Cc1cn([C@H]2C[C@H](O)[C@@H](CS)O2)c(=O)[nH]c1=O	90%	39%		
Cc1cn([C@H]2C[C@H](O)[C@@H](CN=[N+]=[N-])O2)c(=O)[nH]c1=O	0%	0%		
Cc1cn([C@H]2C[C@H](O)C[C@@H](CO)O2)c(=O)[nH]c1=O			0%	
Cc1cn([C@H]2CC[C@@H](CO)O2)c(=O)[nH]c1=O	6.1%	3.2%		
Cc1cn([C@H]2C[C@H](O)[C@@H](CI)O2)c(=O)[nH]c1=O	0%	0%		
Cc1cn(COC(CO)CO)c(=O)[nH]c1=O			0%	
Cc1cn([C@@H]2C[C@H](O)[C@@H](CO)S2)c(=O)[nH]c1=O			0%	
Cc1cn([C@H]2C[C@H](S)[C@@H](CO)O2)c(=O)[nH]c1=O	0%	0%		
Cc1cn([C@@H]2C[C@H](O)[C@@H](CO)O2)c(=O)[nH]c1=O			0%	Activity [5]: 0%
Cc1cnc(=O)n([C@H]2C[C@H](O)[C@@H](CO)O2)c1			0%	Activity [5]: 0%
Cc1cn([C@H]2C[C@H](O)[C@@H](CO)O2)c(=O)[nH]c1=O	86%	86%		Activity [1]: 82%; Activity [6]: 86%
O=c1ccn([C@@H]2O[C@H](CO)[C@@H](O)[C@H]2O)c(=O)[nH]1	81%	56%		
Nc1ccn([C@H]2C[C@H](O)[C@@H](CO)O2)c(=O)n1			0%	Activity [5]: 0%
Cc1nn([C@H]2C[C@H](O)[C@@H](CO)O2)c(=O)[nH]c1=O			5.4%	Activity [5]: 7.9%
